Assay results reported in PubChem BioAssay (NCI).
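Briefly, cells in 96-well plates were exposed to five compound concentrations for 48 h, and endpoints were estimated by linear interpolation. At the GI50, growth is halved. TGI denotes the concentration required for complete inhibition of growth.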

Legend:
Test in all cases: inhibition of tumour cell growth, NCI panel, 48 h
[1] = test system: CCRF-CEM leukemia
[2] = test system: DU-145 prostate
[3] = test system: EKVX NSCLC
[4] = test system: HCT-116 colon
[5] = test system: HT29 colon
[6] = test system: K-562 leukemia
[7] = test system: SK-MEL-5 melanoma
[8] = test system: U251 CNS
[9] = test system: UACC-62 melanoma
[10] = test system: HOP-92 NSCLC

SMILES | TGI [1] [µM] | TGI [2] [µM] | TGI [3] [µM] | TGI [4] [µM] | TGI [5] [µM] | TGI [6] [µM] | TGI [7] [µM] | TGI [8] [µM] | TGI [9] [µM] | TGI [10] [µM] | GI50 [3] [µM] | GI50 [4] [µM] | GI50 [10] [µM] | GI50 [5] [µM] | GI50 [6] [µM] | GI50 [7] [µM] | GI50 [8] [µM] | GI50 [9] [µM] | GI50 [1] [µM] | GI50 [2] [µM]
Nc1nc(-c2ccccc2)nc2c1[n+]([O-])c1ccccc1[n+]2[O-] | > 100 | > 100 | > 100 | > 100 | > 100 | > 100 | > 100 | > 100 | > 100 | – | – | – | – | – | – | – | – | – | – | –
COC(=O)CCCC(=O)O | – | > 100 | > 100 | > 100 | > 100 | – | > 100 | > 100 | > 100 | > 100 | – | – | – | – | – | – | – | – | – | –
CS(=O)(=O)N(N(CCCl)S(=O)(=O)c1ccccc1)S(C)(=O)=O | > 100 | – | > 100 | > 100 | > 100 | > 100 | > 100 | > 100 | > 100 | > 100 | – | – | – | – | – | – | – | – | – | –
O=[N+]([O-])c1cccc(C2ON2C2CCCCC2)c1 (centres undefined) | 36.7 | – | > 100 | 26.3 | 28 | 60.3 | 33 | 14 | 48 | 89.7 | – | – | – | – | – | – | – | – | – | –
C1=CC=C2NCCCNC3=CC=CC=CC3=NCCCN=C2C=C1 | > 100 | – | > 100 | > 100 | > 100 | > 100 | > 100 | > 100 | > 100 | > 100 | – | – | – | – | – | – | – | – | – | –
O=C(CC1(O)C(=O)Nc2c(Cl)cc(Cl)cc21)c1cccc2ccccc12 (centres undefined) | 41.3 | – | 29.7 | 28.5 | 33.8 | 36.6 | 28.4 | 29.2 | 28.9 | – | – | – | – | – | – | – | – | – | – | –
O=C(Cc1nc2ccccc2s1)Nc1cccc(C(F)(F)F)c1 | 4.79 | – | 38.9 | – | 33.9 | 29.8 | 32.2 | – | 25.4 | – | – | – | – | – | – | – | – | – | – | –
O=[N+]([O-])c1cccc(-c2oc(C=Nc3ccccc3)c([N+](=O)[O-])c2-c2cccc([N+](=O)[O-])c2)c1 | > 100 | – | > 100 | > 100 | > 100 | > 100 | > 100 | > 100 | > 100 | > 100 | – | – | – | – | – | – | – | – | – | –
CCCCS(=O)(=O)CCC(N)C(=O)O (centres undefined) | > 100 | > 100 | > 100 | > 100 | > 100 | > 100 | > 100 | > 100 | > 100 | – | – | – | – | – | – | – | – | – | – | –
CCC(=O)c1c(NOC2OC(COC(C)=O)C(OC(C)=O)C(OC(C)=O)C2OC(C)=O)nc(OC)n(C)c1=O (centres undefined) | > 100 | – | > 100 | > 100 | > 100 | > 100 | > 100 | > 100 | > 100 | – | – | – | – | – | – | – | – | – | – | –
C=C1CCC2C(C)(C)CCC[C@]2(C)[C@H]1CO (some centres undefined) | – | – | > 100 | > 100 | > 100 | > 100 | > 100 | > 100 | > 100 | > 100 | 53.5 | 30.4 | 74.9 | 52.7 | 73.8 | 68.2 | 49 | > 100 | – | –
COC1OC(COCc2ccc(Cl)cc2)C(OCc2ccc(Cl)cc2)C1N=[N+]=[N-] (centres undefined) | – | – | > 100 | > 100 | > 100 | > 100 | > 100 | > 100 | 75.7 | > 100 | – | – | – | – | – | – | – | – | – | –
COc1ccc(OC)c(/C=C(/C)[N+](=O)[O-])c1 | > 100 | 3.16 | 11.5 | 3.54 | 5.2 | > 100 | 13 | 3.18 | 4.54 | – | 2.76 | 1.88 | – | 2.56 | 2.57 | 3.47 | 1.68 | 2.06 | 2.66 | 1.64
CC1(C)Cc2cc(C(=O)O)c3c(c2C1=O)COCC3 | > 100 | – | > 100 | > 100 | > 100 | > 100 | > 100 | > 100 | > 100 | – | – | – | – | – | – | – | – | – | – | –
COc1cc2c(cc1C)NC(=O)/C2=C\c1cccc(Oc2ccccc2)c1 | 24.5 | 27 | 41.7 | 20.4 | 26.1 | 39.1 | 23.8 | 24.9 | 25.4 | – | 15.4 | 7.88 | – | 12.1 | 9.83 | 11.6 | 12.4 | 12.5 | 6.85 | 13.5
C=C1CC/C=C(\C)C(=O)C[C@@H]2[C@@H]1CC2(C)C | – | 16.6 | 27.3 | 7.06 | > 32.7 | > 100 | 10.5 | 49.5 | 24.2 | 6.4 | – | – | – | – | – | – | – | – | – | –
Cn1ccnc1C(=O)/C=C/c1ccccc1 | 7.17 | 12.7 | 25.1 | 12.2 | 11.2 | 6.86 | 12.5 | 13.9 | 21.3 | – | 11.6 | 2.72 | – | 3.31 | 2.74 | 2.92 | 3.21 | 7.46 | 2.7 | 2.8
Cc1c(COc2cc(OCc3cccc(C#N)c3)c(CN3C[C@H](O)C[C@@H]3C(=O)O)cc2Cl)cccc1-c1ccc2c(c1)OCCO2 | – | 62.1 | 41.2 | 4.18 | 48.2 | > 100 | 5.13 | 47.3 | 32.3 | – | 18.1 | 1.96 | – | 23.2 | 3.43 | 2.14 | 17.3 | 17 | – | 24.4
O=C(CCC(=O)C(C(=O)c1ccccc1)c1ccccc1)Nc1cccc(C(F)(F)F)c1 (centres undefined) | > 100 | – | > 100 | > 100 | > 100 | > 100 | – | > 100 | > 100 | > 100 | – | – | – | – | – | – | – | – | – | –
Fc1ccccc1C1CC(c2ccc3ccccc3c2)=Nc2ccccc2S1 (centres undefined) | > 100 | – | > 100 | > 100 | > 100 | – | – | > 100 | > 100 | – | – | – | – | – | – | – | – | – | – | –
